Experimental data: patent US20240327429A1, “[1,3]Thiazolo[4,5-d]-pyrimidon-7-ones as inhibitors of NOX4” (Boehringer Ingelheim International GmbH, priority 2023, published 2024)

Columns and labels:
human NOX3 (hNOX3) = molecular target: T1, human NOX3 (hNOX3) (Homo sapiens, UniProt Q9HBY0); experiment: NOX3 inhibition assay (L-012), HEK293 cells stably overexpressing human NOX3; type: cell-based; settings: HEK293-hNOX3, PMA stimulated
T1 construct: pLV-CMV-hNOX3-puro (NM_015718.3); host or cells: HEK293 (CLS GmbH), lentiviral transduction
T1 sequence (Q9HBY0 1-568): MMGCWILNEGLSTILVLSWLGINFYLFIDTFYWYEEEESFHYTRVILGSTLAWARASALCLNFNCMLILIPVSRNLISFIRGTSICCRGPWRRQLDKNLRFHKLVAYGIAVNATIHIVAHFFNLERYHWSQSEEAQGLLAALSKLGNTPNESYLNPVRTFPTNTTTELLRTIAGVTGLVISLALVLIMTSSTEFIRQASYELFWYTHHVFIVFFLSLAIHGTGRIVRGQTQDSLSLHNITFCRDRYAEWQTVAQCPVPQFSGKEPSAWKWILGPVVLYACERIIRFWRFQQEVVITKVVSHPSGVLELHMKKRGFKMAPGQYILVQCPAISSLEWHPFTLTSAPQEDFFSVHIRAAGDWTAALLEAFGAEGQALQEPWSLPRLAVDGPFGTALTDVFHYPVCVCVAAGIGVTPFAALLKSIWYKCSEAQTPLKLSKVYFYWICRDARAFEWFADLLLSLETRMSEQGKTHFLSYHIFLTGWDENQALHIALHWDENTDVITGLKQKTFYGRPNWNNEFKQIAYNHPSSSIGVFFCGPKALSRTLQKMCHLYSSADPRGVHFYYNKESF
T1 sequence (P13498 2-195 partner limits assumed): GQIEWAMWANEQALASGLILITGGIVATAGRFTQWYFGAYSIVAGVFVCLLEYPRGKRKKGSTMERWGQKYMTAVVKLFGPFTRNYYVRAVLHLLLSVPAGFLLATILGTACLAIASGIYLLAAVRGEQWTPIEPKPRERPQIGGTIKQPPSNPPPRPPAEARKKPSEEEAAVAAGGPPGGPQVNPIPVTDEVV
From the text: Plasmids are Purchased from Vectorbuilder. • for HEK-hNOX1 all necessary subunits are cloned accordingly: • pLV-CMV-hNOX1-puro (NM_007052.5) • pLV-CMV-hNOXO1-blas (NM_172168.3) • pLV-CMV-hp22phox-hygro (NM_000101.4) • pLV-CMV-hNOXA1-neo (NM_006647.2) • for HEK-hNOX3 • pLV-CMV-hNOX3-puro (NM_015718.3)
3rd generation lentiviral particles are produced in HEK293 suspension cells by transient transfection of three helper and expression plasmids. Crucial lentivirus supernatants are harvested, clarified by filtration and concentrated by precipitation. Lentivirus titers are determined in transducing units in (TU/mL) by transduction of HT1080 cells and colony forming assay. Parental HEK293 cells, purchased from CLS GmbH, are transduced with replication-incompetent 3rd generation lentiviral particles (MOI 2) and expanded for at least 2 weeks before cryopreservation of tested lots. During cultivation, medium is changed three times per week and cells are sub-cultured at least once per week. Selection antibiotics are added according to the plasmids (1 μg/ml puromycin, 1.5 μg/ml blasticidin, 200 μg/ml G418 and 100 μg/ml hygromycin).
Evaluation of the NOX4 inhibitors on NOX3 activity is assessed in HEK293 cells stably overexpressing human NOX3 (hNOX3).
Cells are seeded in 384 well plates for 2 days. […] Cells are then stimulated with PMA at 0.1 μM to induce NOX3-dependent ROS production. […] Luminescence is measured with an PHERAstar multimode reader.

human NOX1 (hNOX1) = molecular target: T2, human NOX1 (hNOX1) (Homo sapiens, UniProt Q9Y5S8); experiment: NOX1 inhibition assay (L-012), HEK293 cells stably overexpressing human NOX1; type: cell-based; settings: HEK293-hNOX1, PMA stimulated
T2 construct: pLV-CMV-hNOX1-puro (NM_007052.5); host or cells: HEK293 (CLS GmbH), lentiviral transduction
T2 sequence (Q9Y5S8 1-564): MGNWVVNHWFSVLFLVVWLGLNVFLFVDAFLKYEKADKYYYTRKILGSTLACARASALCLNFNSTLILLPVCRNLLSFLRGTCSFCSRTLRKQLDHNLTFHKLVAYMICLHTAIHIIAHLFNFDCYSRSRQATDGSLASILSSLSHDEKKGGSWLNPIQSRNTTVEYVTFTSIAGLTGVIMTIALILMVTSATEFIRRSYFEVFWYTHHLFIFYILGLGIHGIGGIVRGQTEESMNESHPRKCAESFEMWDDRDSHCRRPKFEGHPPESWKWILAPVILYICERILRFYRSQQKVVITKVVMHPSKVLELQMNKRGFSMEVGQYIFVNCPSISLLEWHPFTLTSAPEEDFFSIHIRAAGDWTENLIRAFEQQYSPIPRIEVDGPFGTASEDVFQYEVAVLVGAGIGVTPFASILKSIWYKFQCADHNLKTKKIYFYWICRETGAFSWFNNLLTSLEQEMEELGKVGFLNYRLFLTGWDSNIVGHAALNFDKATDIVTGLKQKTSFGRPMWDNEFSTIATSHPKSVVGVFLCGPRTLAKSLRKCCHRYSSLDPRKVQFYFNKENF
T2 sequence (P13498 2-195 partner limits assumed): T1 sequence (P13498 2-195 partner limits assumed)
How it was run: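 Lentivirally transduced HEK293 stably expressing human NOX1 with NOXO1, NOXA1 and p22phox under antibiotic selection. ROS production read by L-012 chemiluminescence: probe added at 400 μM, cells incubated a further 3 h before luminescence measurement.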

human NOX4 (hNOX4) = molecular target: T3, human NOX4 (hNOX4) (Homo sapiens, UniProt Q9NPH5); experiment: cell-based
T3 sequence (Q9NPH5 1-578): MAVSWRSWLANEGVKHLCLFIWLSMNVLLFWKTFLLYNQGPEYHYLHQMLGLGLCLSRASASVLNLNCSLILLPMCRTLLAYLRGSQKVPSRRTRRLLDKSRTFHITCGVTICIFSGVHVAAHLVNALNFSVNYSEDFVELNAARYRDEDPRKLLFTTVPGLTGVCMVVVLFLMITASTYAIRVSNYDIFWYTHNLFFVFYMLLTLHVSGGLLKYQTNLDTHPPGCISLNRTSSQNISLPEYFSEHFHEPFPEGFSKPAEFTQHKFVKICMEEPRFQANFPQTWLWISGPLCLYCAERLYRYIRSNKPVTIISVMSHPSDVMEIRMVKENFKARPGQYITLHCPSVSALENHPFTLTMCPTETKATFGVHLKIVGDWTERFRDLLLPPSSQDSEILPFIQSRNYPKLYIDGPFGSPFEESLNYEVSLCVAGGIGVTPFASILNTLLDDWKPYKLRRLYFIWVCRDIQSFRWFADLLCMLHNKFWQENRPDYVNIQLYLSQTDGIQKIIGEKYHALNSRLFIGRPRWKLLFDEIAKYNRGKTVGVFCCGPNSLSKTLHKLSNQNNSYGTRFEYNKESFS
T3 sequence (P13498 2-195 partner limits assumed): T1 sequence (P13498 2-195 partner limits assumed)
Protocol: The synthetic gene phNOX4_DNA3_1_Zeo (Accession: AAF68973) is assembled from synthetic oligonucleotides and/or PCR products. The fragment is cloned into pcDNA3.1_Zeo_A011 using NheI and XhoI cloning sites. The plasmid DNA is purified from transformed bacteria and its concentration is determined by UV spectroscopy. The final construct is verified by sequencing. The plasmid is transfected via electroporation (Amaxa electroporation device) in combination with Nucleofector Kit V. Selection of NOX4 overexpressing genes is achieved using selection antibiotic Zeocin.
The inhibitory activity of the example compounds of the invention is determined using the following procedure:
Cells are cultured in the Dulbecco's Modified Eagle Medium (DMEM) media containing 4.5 g/L glucose supplemented with 10% fetal calf serum and 250 μg/ml Zeocin in an incubator at 37° C. with 5% CO2. For the assay, cells are seeded in 384 well plates.
After incubation Lumigen HyPerBlu™ is added and cells are incubated for additional 30 min at 24° C. in a humidified incubator. Next, luminescence is measured using an Envision Multimode Plate reader to determine levels of produced H2O2 in the wells.

IC50 (human NOX3 (hNOX3)) | IC50 (human NOX1 (hNOX1)) | IC50 (human NOX4 (hNOX4)) | Structure (SMILES)
> 100 µM | 11.8 µM | 140 nM | Cc1cc(F)ccc1CSc1nc2ncsc2c(=O)n1-c1cnc(O)nc1 [Example 58]
> 100 µM | 21 µM | 206 nM | O=c1c2scnc2nc(SCc2c(F)cc(F)cc2F)n1-c1cnc(O)nc1 [Example 59]
> 100 µM | > 100 µM | 237 nM | O=c1c2scnc2nc(SCc2ccc(C(F)(F)F)cc2)n1-c1cnc(O)nc1 [Example 60]
28.2 µM | > 100 µM | 103 nM | O=c1c2scnc2nc(SCc2ccc(Cl)cc2F)n1-c1ccc(O)nn1 [Example 61, 5-((4-Chloro-2-fluorobenzyl)thio)-6-(6-hydroxypyridazin-3-yl)thiazolo[4,5-d]pyrimidin-7(6H)-one]
> 100 µM | > 100 µM | 127 nM | Cc1cc(Cl)ccc1CSc1nc2ncsc2c(=O)n1-c1ccc(O)nn1 [Example 62]
> 100 µM | 43.4 µM | 126 nM | Cc1cc(F)cc(C)c1CSc1nc2ncsc2c(=O)n1-c1ccc(O)nn1 [Example 63]
> 100 µM | > 100 µM | 133 nM | O=c1c2scnc2nc(SCc2ccc(Cl)cc2)n1-c1ccc(O)nn1 [Example 64]
83.4 µM | > 100 µM | 137 nM | O=c1c2scnc2nc(SCc2ccc(C(F)(F)F)cc2F)n1-c1ccc(O)nn1 [Example 65]
> 100 µM | > 100 µM | 137 nM | O=c1c2scnc2nc(SCc2ccc(C(F)(F)F)cc2)n1-c1ccc(O)nn1 [Example 66]
> 100 µM | > 100 µM | 165 nM | O=c1c2scnc2nc(SCc2c(F)cc(F)cc2F)n1-c1ccc(O)nn1 [Example 67]
> 100 µM | 11 µM | 143 nM | Cc1cc(F)ccc1CSc1nc2ncsc2c(=O)n1-c1ccc(O)nn1 [Example 68]
77.5 µM | > 100 µM | 65 nM | O=c1c2scnc2nc(SCc2c(F)cc(F)cc2F)n1-c1cnc(O)cn1 [Example 69, 6-(5-Hydroxypyrazin-2-yl)-5-((2,4,6-trifluorobenzyl)thio)thiazolo[4,5-d]pyrimidin-7(6H)-one]
